This is an account of results in patent publication US6846925B2, “Colchinol derivatives as angiogenesis inhibitors” (Angiogene Pharmaceuticals Limited, priority 2000, dated 2005).

Structures are written as SMILES.

For experiment [1], the system named is tumour vasculature of CaNT tumours. The experiment in a line: Activity against tumour vasculature measured by fluorescent dye (Hoechst 33342). It is filed as in vivo. The settings on record: CaNT tumour-bearing mice, 50 mg/kg intraperitoneally, dye 24 hours after drug treatment. Here is the method:
(b) Activity Against Tumour Vasculature Measured by Fluorescent Dye
Tumour functional vascular volume in CaNT tumour-bearing mice was measured using the fluorescent dye Hoechst 33342 according to the method of Smith et al (Brit. Jnl. Cancer 1988, 57, 247-253). Five animals were used in control and treated groups. The fluorescent dye was dissolved in saline at 6.25 mg/ml and injected intravenously at 10 mg/kg 24 hours after intraperitoneal drug treatment. One minute later, animals were killed and tumours excised and frozen; 10 μm sections were cut at 3 different levels and observed under UV illumination using an Olympus microscope equipped with epifluorescence. Blood vessels were identified by their fluorescent outlines and vascular volume was quantified using a point scoring system based on that described by Chalkley, (Jnl. Natl. Cancer Inst., 1943, 4, 47-53). All estimates were based on counting a minimum of 100 fields from sections cut at the 3 different levels.

The test system of the next experiment is tubulin. The following applies: O. Boye et al Med. Chem. Res., 1991, 1, 142-150; read-out: IC50 in a tubulin polymerisation assay; cited from earlier work.
The test system of experiment [2] is Hras5 tumours (NIH 3T3 fibroblasts transfected with Harvey ras, clone 5). The experiment in a line: Hras5 necrosis model. It is filed as in vivo, nude mice. The following applies: single dose, culled 24 hours after dosing. Here is the method:
NIH 3T3 fibroblasts transfected with Harvey ras, clone 5, (Hras5 cells) were kept in continual passage in Dulbecco's modifed Eagles medium (DMEM) containing 10% foetal bovine serum (FBS) and 1% glutamine, at 37° C. in a humidified incubator gassed with 7.5% carbon dioxide and […]. Cells were implanted subcutaneously into the left flank of male nude mice (8-10 weeks of age) at an inoculum of 2×10^5 cells/mouse. Tumours were measured using calipers and randomised into groups of 2-4 mice between days 9-14 after implant. Mice were dosed with compounds, either intravenously or intraperitoneally, once on day of randomisation and culled 24 hours after dosing. Compounds were dissolved in 20% hydroxypropyl beta cyclodextrin in physiological saline at pH 7 and dosed in a volume of 0.1 ml per 10 g body weight. Tumours were excised, weighed and placed in buffered formalin. Area of necrosis in individual tumours was assessed from a haematoxylin/eosin stained-slide by a pathologist and scored from 0, meaning no significant change, to 10, meaning 91-100% necrosis. The activity of examples 5 and 7 (described hereinafter) against tumour vasculature was measured by the fluorescent dye method described hereinabove. Example 1 scored 6.0 at 100 m/kg and example 4 scored 3.2 at 50 m/kg.

The IC50 is the concentration at which inhibition is half-maximal. Turning to `COc1cc2c(c(OC)c1OC)-c1ccc(N)cc1C(NC(C)=O)CC2` (stereo not shown) [N-[3-amino-9,10,11-trimethoxy-6,7-dihydro-5H-dibenzo[a,c]cyclohepten-5-yl]acetamide], the “decrease of perfused vascular volume relative to control” value in experiment [1] was 88%. In the experiment on tubulin, the half-inhibitory concentration (IC50) was 58 µM.

With `COc1ccc2c(c1)[C@@H](NC(=O)CNC(=O)CN)CCc1cc(OC)c(OC)c(OC)c1-2` [Example 1, N-[(5S)-3,9,10,11-Tetramethoxy-6,7-dihydro-5H-dibenzo[a,c]cyclohepten-5-yl]-2-[2-aminoacetylamino]acetamide], in experiment [2] (100 m/kg), the “necrosis score (0 = no significant change, 10 = 91-100% necrosis)” value is 6.0.

With `COc1ccc2c(c1)[C@@H](NC(=O)OCCOP(=O)([O-])[O-])CCc1cc(OC)c(OC)c(OC)c1-2.[Na+].[Na+]` [Example 4, 2-{N-[(5S)-3,9,10,11-tetramethoxy-6,7-dihydro-5H-dibenzo[a,c]cyclohepten-5-yl]carbamoyloxy}ethyl disodium phosphate], the “necrosis score (0 = no significant change, 10 = 91-100% necrosis)” value in experiment [2] (50 m/kg) was found to be 3.2.
